Data from US11667602B2, “Compounds and their use” (AstraZeneca AB, priority 2020, dated 2023).
≈ marks a conversion by molar mass, not a printed value.

What was measured:
[1] = Human Plasma Protein Binding (Test B); format: in vitro ADME; details: fraction unbound (fu)
Outline: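 Values given as % free (fu) in human plasma, using the method of Wernevik et al. (2020). For compounds tested more than once, the arithmetic mean is given.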

[2] = Human Liver Microsomal Stability (Test C); format: in vitro ADME; details: human, liver microsomes
Outline: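 CLint (μl/min/mg protein) derived from compound depletion in human liver microsomes following a published standardized early-DMPK protocol; replicate determinations given as arithmetic mean.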

[3] = Human Hepatocyte Stability (Test D); format: in vitro ADME; details: human, cryopreserved pooled human hepatocytes (LiverPool 10-Donor), geometric mean if run multiple times
Outline: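 Intrinsic clearance (μL/min/10^6 cells), derived as kV/N from the log-linear loss of parent compound. Compound incubated at 37 °C with cryopreserved pooled human hepatocytes, 0.25×10^6 cells in 0.25 mL L-15; dosing solution 100 μM in acetonitrile. Singlicate incubations, cassette LC-MS; repeats reported as geometric mean.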

[4] = Rat Hepatocyte Stability (Test E); format: in vitro ADME; details: rat, hepatocytes, geometric mean if run multiple times
Outline: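 Intrinsic clearance in rat hepatocytes, expressed as μl/min/10^6 cells, following the literature integrated DMPK panel method. Repeat determinations combined as geometric mean.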

[5] = Solubility (Test F); format: physicochemical; details: arithmetic mean if run multiple times
Description: The assay was conducted according to the Solubility Assay described in pages 164-167 of Wernevik, J. et al., “A Fully Integrated Assay Panel for Early Drug Metabolism and Pharmacokinetics Profiling”, Assay and Drug Development Technologies, 2020, 18(4), 157-179. Data are reported in Table 36 as solubility ([…]. Where the assay was run multiple times for the same compound, the arithmetic mean is reported.

[6] = target: T1, human RXFP1 (Homo sapiens, UniProt Q9HBX9); test: RXFP1 Hu cAMP (Test A); format: cell-based; design: expressed in transfected cells; host or cells: Jump-In T-REx CHO-K1 cells (ThermoFisher), induced with 10 ng/ml doxycycline for 24 h; details: RXFP1 Hu cAMP; for EC50: read-out: Test A EC50
T1 sequence (Q9HBX9 1-757): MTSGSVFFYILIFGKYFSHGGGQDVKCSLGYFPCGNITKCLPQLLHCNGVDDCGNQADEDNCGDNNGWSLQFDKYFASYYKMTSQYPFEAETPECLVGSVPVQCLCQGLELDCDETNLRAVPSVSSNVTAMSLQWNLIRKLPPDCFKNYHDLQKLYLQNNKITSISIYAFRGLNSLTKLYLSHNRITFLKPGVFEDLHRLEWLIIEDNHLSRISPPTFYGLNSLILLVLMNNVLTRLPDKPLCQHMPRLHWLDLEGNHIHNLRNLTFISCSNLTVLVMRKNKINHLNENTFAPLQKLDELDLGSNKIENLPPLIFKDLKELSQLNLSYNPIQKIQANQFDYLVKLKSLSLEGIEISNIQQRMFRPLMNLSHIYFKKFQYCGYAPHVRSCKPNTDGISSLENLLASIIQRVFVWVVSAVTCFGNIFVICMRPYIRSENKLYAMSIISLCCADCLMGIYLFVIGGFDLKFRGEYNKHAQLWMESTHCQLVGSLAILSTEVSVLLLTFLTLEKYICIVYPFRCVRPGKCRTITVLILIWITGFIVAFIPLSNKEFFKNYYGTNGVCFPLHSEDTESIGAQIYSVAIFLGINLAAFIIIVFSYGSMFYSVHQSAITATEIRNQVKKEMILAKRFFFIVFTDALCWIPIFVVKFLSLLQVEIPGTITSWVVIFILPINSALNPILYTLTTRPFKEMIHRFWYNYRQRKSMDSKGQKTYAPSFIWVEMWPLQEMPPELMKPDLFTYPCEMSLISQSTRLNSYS
Outline: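 CHO-K1 (Jump-In T-REx), RXFP1 induced w/ 10 ng/ml doxycycline 24 h, cryopreserved. 0.5 mM IBMX final. cAMP by HTRF, 2 h RT, std curve.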

Row | Structure (SMILES) | Test B Human Plasma Protein Binding (% free) [1] [% free] | microsomal CLint [2] [µL/min/mg] | hepatocyte CLint at 1 µM [3] [µL/min/1e6 cells] | hepatocyte CLint [4] [µL/min/1e6 cells] | solubility [5] [µM] | Test A Sinf [6] [%] | EC50 [6] [nM]
1 | COc1cc(-c2cc(C(=O)N[C@H]3[C@@H](C(=O)Nc4cccc(S(=O)(=O)C(F)(F)F)c4)[C@@H]4C=C[C@H]3C4)c(OC)cc2F)ccc1C(=O)O (racemic) [Example 226, rac-2′-Fluoro-3,4′-dimethoxy-5′-(((1R,2R,3S,4S)-3-((3-((trifluoromethyl)sulfonyl)phenyl)carbamoyl)bicyclo[2.2.1]hept-5-en-2-yl)carbamoyl)-[1,1′-biphenyl]-4-carboxylic acid] | 0.62 | 12 | 11 | 16 | 870 (≈ 576 µg/mL) | 105 | 300
2 | COc1cc(F)c(-c2ncc(CCC(=O)O)cn2)cc1C(=O)N[C@@H]1[C@H]2CC[C@H](C2)[C@@H]1C(=O)Nc1cccc(S(=O)(=O)C(F)(F)F)c1 [Example 323, 3-(2-(2-Fluoro-4-methoxy-5-(((1S,2R,3S,4R)-3-((3-((trifluoromethyl)sulfonyl)phenyl)carbamoyl)bicyclo[2.2.1]heptan-2-yl)carbamoyl)phenyl)pyrimidin-5-yl)propanoic acid] | 9.3 | 58 | 16 | 21 | 850 (≈ 565 µg/mL) | 108 | 420
3 | CCC(C)(C)CNC(=O)[C@H]1CCC[C@H]1NC(=O)c1cc(O[C@H]2CC[C@@](C)(C(=O)O)CC2)c(F)cc1OC [Example 58, (1S,4s)-4-(5-(((1R,2S)-2-((2,2-Dimethylbutyl)carbamoyl)cyclopentyl)carbamoyl)-2-fluoro-4-methoxyphenoxy)-1-methylcyclohexane-1-carboxylic acid] | 7 | 6.5 | 1.9 | 19 | > 1000 | 99 | 260
4 | COc1cc(F)c(O[C@H]2CC[C@@](C)(C(=O)O)CC2)cc1C(=O)N[C@@H]1[C@H](O)CC[C@@H]1C(=O)Nc1cccc(S(=O)(=O)C(F)(F)F)c1 (racemic) [Example 396, (1R,4s)-4-(2-Fluoro-5-(((1SR,2RS,5SR)-2-hydroxy-5-((3-((trifluoromethyl)sulfonyl)phenyl)carbamoyl)cyclopentyl)carbamoyl)-4-methoxyphenoxy)-1-methylcyclohexane-1-carboxylic acid] | 5 | 47 | 16 | 16 | 21 (≈ 13.9 µg/mL) | 91 | 640
5 | CCc1cc(OC)c(C(=O)N[C@@H]2[C@H]3CC[C@H](C3)[C@@H]2C(=O)NCC2(C)CCC2)cc1O[C@H]1CC[C@@](C)(C(=O)O)CC1 [Example 376] | 2.5 | 44 | 3.9 | 28 | 300 (≈ 166 µg/mL) |  | 
6 | COc1cc(F)c(O[C@H]2CC[C@@](C)(C(=O)O)CC2)cc1C(=O)N[C@@H]1[C@H]2CC[C@H](C2)[C@@H]1C(=O)NCC(C)C [Example 34, (1S,4s)-4-(2-Fluoro-5-(((1S,2R,3S,4R)-3-(isobutylcarbamoyl)bicyclo[2.2.1]heptan-2-yl)carbamoyl)-4-methoxyphenoxy)-1-methylcyclohexane-1-carboxylic acid] | 4.8 | 5.7 | < 1 | 19 | 880 (≈ 456 µg/mL) |  | 
7 | COc1cc(C#N)c(O[C@H]2CC[C@@](C)(C(=O)O)CC2)cc1C(=O)N[C@H]1C(C(=O)NCC(C)(C)C)[C@@H]2CC[C@H]1C2 (stereo partly drawn) [Example 621, (1S,4s)-4-(2-cyano-4-methoxy-5-(((1S,2R,3S,4R)-3-(neopentylcarbamoyl)bicyclo[2.2.1]heptan-2-yl)carbamoyl)phenoxy)-1-methylcyclohexane-1-carboxylic acid] | 12 | < 3 | < 1.2 | 15 | 910 (≈ 491 µg/mL) |  | 
8 | COc1cc(C)c(O[C@H]2CC[C@@](C)(C(=O)O)CC2)cc1C(=O)N[C@@H]1[C@H]2CC[C@H](C2)[C@@H]1C(=O)NCC1(C)CCC1 [Example 375] | 4.4 | 38 | 3.1 | 32 | 240 (≈ 130 µg/mL) |  | 
9 | COc1cc(C#N)c(O[C@H]2CC[C@@](C)(C(=O)O)CC2)cc1C(=O)N[C@@H]1[C@@H]2CC[C@@H](C2)[C@@H]1C(=O)NCC1(C)CCC1 [Example 388] | 3.4 | 34 | 49 | 55 | 680 (≈ 375 µg/mL) |  | 
10 | COc1c(Cl)cc(O[C@H]2CC[C@@](C)(C(=O)O)CC2)cc1C(=O)N[C@@H]1[C@H]2CC[C@H](C2)[C@@H]1C(=O)NCC1(C)CCC1 [Example 403] | 1.5 | 81 | 13 | 25 | 660 (≈ 370 µg/mL) |  | 
11 | COc1cc(F)c(O[C@H]2CC[C@@](C)(C(=O)O)CC2)cc1C(=O)N[C@@H]1[C@H]2CC[C@H](C2)[C@@H]1C(=O)NCC1CCC1 [Example 2, (1S,4s)-4-(5-(((1S,2R,3S,4R)-3-((cyclobutylmethyl)carbamoyl)bicyclo[2.2.1]heptan-2-yl)carbamoyl)-2-fluoro-4-methoxyphenoxy)-1-methylcyclohexane-1-carboxylic acid] | 1.9 | 14 | 2 | 27 | > 1000 |  | 
12 | COc1cc(Cl)c(O[C@H]2CC[C@@](C)(C(=O)O)CC2)cc1C(=O)N[C@@H]1[C@@H]2CC[C@@H](C2)[C@@H]1C(=O)NCC1(C)CCC1 [Example 410] | 0.48 | 20 | 49 | 21 | 280 (≈ 157 µg/mL) |  | 
13 | COc1cc(F)c(O[C@H]2CC[C@@](CC#N)(C(=O)O)CC2)cc1C(=O)N[C@@H]1[C@H]2CC[C@H](C2)[C@@H]1C(=O)NCC1(C)CCC1 [Example 424, (1S,4s)-1-(Cyanomethyl)-4-(2-fluoro-4-methoxy-5-(((1S,2R,3S,4R)-3-(((1-methylcyclobutyl)methyl)carbamoyl)bicyclo[2.2.1]heptan-2-yl)carbamoyl)phenoxy)cyclohexane-1-carboxylic acid] | 6.7 | 13 | 10 | 21 | 990 (≈ 564 µg/mL) |  | 
14 | COc1cc(C#N)c(O[C@H]2CC[C@@](C)(C(=O)O)CC2)cc1C(=O)N[C@@H]1[C@@H]2CC[C@@H](C2)[C@@H]1C(=O)NCC(C)(C)C [Example 389] | 6 | 5.8 | 8 | 11 | 910 (≈ 491 µg/mL) |  | 
